{"source": "patent US20220281902A1", "about": "“MIT[…] IMPROVE METABOLIC SYNDROME DURING AGING” (The Board of Trustees of the Leland Stanford Junior …, priority 2019, published 2022)", "key": {"[1]": {"experiment": "Single IP injection, body temperature and clinical pathology", "assay_type": "in vivo, C57BL/6 mice", "conditions": "Day 4", "description": "Body temperature integration in mouse. Three groups of male C57BL/6 mice received a single injection of the inhibitor at dose-levels of 0 (vehicle=N/S), average μM and max μM and were then kept for an 80 minute observation period until the BT was stabilized. Treatment was performed as a slow injection, IP, under a dosage volume of 0.5 mL/kg.\nRectal temperature was measured using a conventional thermometer in all groups at 0, 10, 15, 20, 30, 40, 50, 60, 70 and 80 minutes and repeated three times in 3 days."}, "[2]": {"test_system": "UCP1, UCP2, CIDEA, Cox8b transcripts", "experiment": "qPCR of thermoregulatory factors and beiging inducers", "assay_type": "in vivo, mouse", "conditions": "brown fat, after 14 months of treatment", "description": "(§1) Gene expression & RT qPCR Analyses. Total RNA was isolated using a commercially available kit (OMEGA bio-tek, R6812-02) according to the manufacturer's instructions. cDNA was generated using the PrimeScript RT reagent kit (TAKARA, RR047A). Gene expression were determined by qPCR as described in the product manual. The analysis was evaluated by Bio-Rad Real-Time System (CFX Connect™).\n(§2) RNAs from 10 mice (5 treated and 5 Ctrl.) VF fat or livers were isolated by using omega Bio-Tek reagents, and cDNA was transcribed by (TAKARA). qPCR was then performed by using iQ SYBR Green mastermix bioscience on a CFX96 Real-Time System/C1000 Thermal Cycler (Bio-Rad)."}, "[3]": {"test_system": "PGC-1α, NRF1, SIRT1, Atg5, PINK1, Parkin transcripts", "experiment": "qPCR of mitochondriogenesis transcripts and mitophagy markers", "assay_type": "in vivo, mouse", "description": "as §1, §2"}, "[4]": {"experiment": "DEXA body composition analysis and fat depot analysis", "assay_type": "in vivo", "conditions": "14 month old mice"}, "[5]": {"experiment": "Long-term oral administration in drinking water, tolerability", "assay_type": "in vivo, C57BL/6 mice", "description": "(§3) Animal experimentation. Male C57BL/6 mice (Shanghai SLAC Laboratory animal Co. Ltd) were group-housed in a barrier facility with 12-hr light/12-hr dark cycles. All mice received a regular chow diet ad libitum (PicoLab 5053 Rodent Diet 20; Lab Diets) except for HFD (40-60%) and CR models. The compound was then administered in drinking water ad libitum at either 90-100 or 100-120 mg/kg/day, based on the previously measured water consumption.\nThe C57BL/6 mice were maintained on a standard purified mouse diet (PicoLab 5053 Rodent Diet 20; Lab Diets) until they reached 2 months of age when the treatments started. […] Body weights were measured weekly at the same time each week. Food and water intake were measured once every month for 3-6 consecutive days at the same time each month. Water consumption was measured for 2 weeks prior to the start of administration. Compound was generated and modified for better permeability in to mitochondria, evaluated by HPLC, was 96%-97%. […] Aliquots were collected from each batch and measured by HPLC to confirm stability of the compound. […] Rectal body temperature was measured monthly, as described previously. Whole blood samples, and histopathology were analyzed after 14 months of treatment. […]"}, "[6]": {"experiment": "Intra-peritoneal glucose tolerance test (IPGTT)", "assay_type": "in vivo, C57BL/6 mice", "text": "The C57BL/6 mice were maintained on a standard purified mouse diet (PicoLab 5053 Rodent Diet 20; Lab Diets) until they reached 2 months of age when the treatments started. The CR animals were subjected to a lifelong restriction on PicoLab 5053 Rodent Diet 20; Lab Diets, starting at 12 weeks of age, with a daily food allotment of 60% of that eaten by the ad lib animals. Besides CR animals, the C57BL/6 groups in this study were fed the standard high fat diet (HFD; 60 or 40% fat). Body weights were measured weekly at the same time each week. Food and water intake were measured once every month for 3-6 consecutive days at the same time each month. Water consumption was measured for 2 weeks prior to the start of administration. Compound was generated and modified for better permeability in to mitochondria, evaluated by HPLC, was 96%-97%. The administration began at 8 weeks of age and continued for 16 months, until they became 18-month-old. The drug solution was prepared weekly in small batches by dissolving the compound into autoclaved water at the respective doses and filtering sterilely. Aliquots were collected from each batch and measured by HPLC to confirm stability of the compound. Water bottles and cages were changed twice weekly. […] Rectal body temperature was measured monthly, as described previously. Whole blood samples, and histopathology were analyzed after 14 months of treatment. […]"}, "mature 3T3-L1 cells": {"test_system": "mature 3T3-L1 cells", "experiment": "2-NBDG glucose uptake in matured adipocytes", "assay_type": "cell-based", "conditions": "highest concentration 50 μg/mL, vs insulin (control) and Rosiglitazone", "description": "Second, adipocytes are the main site of insulin action and, thereby, play an important role in glucose metabolism as well as in the regulation of body glucose homeostasis. Therefore, the glucose uptake tests were evaluated on matured adipocytes to stimulate 2-NBDG (glucose) in the absence and presence of insulin and Rosiglitazone (insulin-sensitizer) and the higher insulin sensitivity was verified after treatment by the inhibitor."}, "[7]": {"experiment": "Body weight variations on high fat diet (HFD, 60% fat)", "assay_type": "in vivo, C57BL/6 mice", "conditions": "for body weight gain on HFD: after 8 weeks HFD; for BW contrast of treated vs control: end of 8-week HFD", "description": "as §3\n(§4) The C57BL/6 mice were maintained on a standard purified mouse diet (PicoLab 5053 Rodent Diet 20; Lab Diets) until they reached 2 months of age when the treatments started. The CR animals were subjected to a lifelong restriction on PicoLab 5053 Rodent Diet 20; Lab Diets, starting at 12 weeks of age, with a daily food allotment of 60% of that eaten by the ad lib animals. Besides CR animals, the C57BL/6 groups in this study were fed the standard high fat diet (HFD; 60 or 40% fat). Body weights were measured weekly at the same time each week. Food and water intake were measured once every month for 3-6 consecutive days at the same time each month. Water consumption was measured for 2 weeks prior to the start of administration. Compound was generated and modified for better permeability in to mitochondria, evaluated by HPLC, was 96%-97%. The administration began at 8 weeks of age and continued for 16 months, until they became 18-month-old. The drug solution was prepared weekly in small batches by dissolving the compound into autoclaved water at the respective doses and filtering sterilely. Aliquots were collected from each batch and measured by HPLC to confirm stability of the compound. Water bottles and cages were changed twice weekly. Fed and fasted blood samples were collected monthly at the same time each month from tail and used for glucose, insulin, blood cell counts, lipid analysis using assay kits (Robio, China) and HbA1C assay kit (Crystal chem, USA) following the manufacturer protocol. IPGTTs and ITTs were conducted throughout morning and early afternoon after fasting for 16-18 hrs. and 4 hrs., respectively, once before start of treatment administration began and every 3 months thereafter. Rectal body temperature was measured monthly, as described previously. Whole blood samples, and histopathology were analyzed after 14 months of treatment. Tissue samples were collected after 10-14 months from mice, sacrificed and used for WB and qPCR microarray, and other analyses. All animal studies were approved by the Shanghai Jiao Tong University Animal Studies Committee and were in accordance with NIH guidelines. (Number of mice; SD=30, HFD=10, CR=20)."}, "[8]": {"experiment": "Serum biomarkers in treated mice", "assay_type": "in vivo, C57BL/6 mice", "conditions": "100 mg/Kg per day", "text": "as §4"}, "[9]": {"conditions": "liver, 12- and 16-month chronic treatment"}}, "note": "Marks after values point to notes of the source that are not given here.", "data": [{"smiles": "Cc1ncsc1CCOC(=O)C[P+](c1ccccc1)(c1ccccc1)c1ccccc1.[Br-]", "note": "[HG1a-1, (2-(2-(4-Methylthiazol-5-yl)Ethoxy)-2-Oxoethyl) Triphenylphosphonium Bromide]", "values": [{"measurement": "clinical pathology (physicals) 24 h after treatment", "setting": "[1]", "value": "within the normal baseline range"}, {"measurement": "CIDEA expression amplified", "setting": "[2]", "value": "one-fold"}, {"measurement": "Cox8b expression amplified", "setting": "[2]", "value": 7, "unit": "fold"}, {"measurement": "UCP2 expression amplified", "setting": "[2]", "value": "> one-fold"}, {"measurement": "UPC1 expression increase", "setting": "[2]", "value": 20, "unit": "fold"}, {"measurement": "Atg5 transcript level", "setting": "[3]; adipose tissue", "value": "enhancement"}, {"measurement": "Atg5 transcript level", "setting": "[3]; [9]", "value": "noticeable upgrade"}, {"measurement": "PINK1 transcript level", "setting": "[3]; [9]", "value": "noticeable upgrade"}, {"measurement": "Parkin transcript level", "setting": "[3]; [9]", "value": "noticeable upgrade"}, {"measurement": "SIRT1 transcript level", "setting": "[3]; liver, longer course of treatment", "value": "significant enhancement"}, {"measurement": "NRF1 transcript level", "setting": "[3]; livers of aged mice", "value": "increased notably"}, {"measurement": "PGC-1α transcript level", "setting": "[3]; livers of aged mice", "value": "increased notably"}, {"measurement": "gonadal adipose mass", "setting": "[4]", "value": "valid reduction"}, {"measurement": "sub-scapular brown adipose mass", "setting": "[4]", "value": "minor effect"}, {"measurement": "body fat mass", "setting": "[4]; DEXA", "value": "recognizable decrease"}, {"measurement": "lean mass", "setting": "[4]; DEXA", "value": "trivial changes"}, {"measurement": "tolerability of long-term regulated mitochondrial inhibition", "setting": "[5]; 18 month long treatment", "value": "well-tolerated without any deleterious effect"}, {"measurement": "mortality due to oral administration", "setting": "[5]; oral, 18-20 months", "value": "no mice died"}, {"measurement": "glucose tolerance (IPGTT)", "setting": "[6]; after 6 months", "value": "normal glucose tolerance"}, {"measurement": "glucose tolerance (IPGTT)", "setting": "[6]; young ages of 8 weeks and 12 weeks", "value": "mildly glucose-intolerant"}, {"measurement": "2-NBDG uptake", "setting": "mature 3T3-L1 cells", "value": "notably higher"}, {"measurement": "BW gain on HFD", "setting": "[7]; 14 month old mice already treated for 12 months, 8 week HFD", "value": "resisted the BW gain with HFD until 5 weeks"}, {"measurement": "body weight gain on HFD", "setting": "[7]; aged group (12 month old)", "value": 12, "unit": "%"}, {"measurement": "BW contrast of treated vs control", "setting": "[7]; aged group", "value": 13, "unit": "%"}, {"measurement": "body weight gain on HFD", "setting": "[7]; younger group (12 week old)", "value": 18, "unit": "%"}, {"measurement": "BW contrast of treated vs control", "setting": "[7]; younger group", "value": "2-4%"}, {"measurement": "glycated hemoglobin (Hb1Ac) levels vs control and calorie restriction", "setting": "[8]; 12 months continuous treatment", "value": "lower"}, {"measurement": "Cholesterol", "setting": "[8]; serum, treated mice", "value": "6.3 ± 0.9", "unit": "mM/L"}, {"measurement": "Glucose-fasted", "setting": "[8]; serum, treated mice", "value": "4.4 ± 0.2", "unit": "mM"}, {"measurement": "Glucose-fed", "setting": "[8]; serum, treated mice", "value": "6.5 ± 0.3", "unit": "mM"}, {"measurement": "Insulin", "setting": "[8]; serum, treated mice", "value": "2.34 ± 0.5", "unit": "µg/L"}, {"measurement": "Total protein", "setting": "[8]; serum, treated mice", "value": "5.89 ± 0.32", "unit": "g dl^□−1"}, {"measurement": "Triglycerides", "setting": "[8]; serum, treated mice", "value": "1.00 ± 1*^ mM/L"}, {"measurement": "% HbA1c", "setting": "[8]; treated mice", "value": "5.5 ± 0.5", "unit": "%"}]}]}
